Test results taken from EP2657347A1, “Electrochemical competitive assay and use thereof” (Université Paris Diderot - Paris 7, priority 2012, dated 2013).
Read-outs that look alike come from different tables or passages of the source.

Tests used:
D-Apt49 = experiment: Homogeneous electrochemical competitive binding assay in 20% fetal bovine serum
Experimental: • Figure 1: Electrochemically competitive assay of the invention. Left-hand column: before the addition of the sample: a first redox signal is measured. Right-hand column: after the addition of a sample containing the target to be detected or measured: a second redox signal is measured. (A) Homogeneous electrochemically competitive assay: the presence of the target disrupts the complex formed between the oligonucleotide ligand and the redox-labeled target. […] (B) Heterologous electrochemically competitive assay, wherein the oligonucleotide ligand is attached to a solid phase: the presence of the target disrupts the complex formed between the oligonucleotide ligand and the redox-labeled target, thereby inducing a better detection of the redox labeled-target. […] (C) Heterologous electrochemically competitive assay, wherein the oligonucleotide ligand is attached to the electrode: the presence of the target disrupts the complex formed between the oligonucleotide ligand and the redox-labeled target, thereby reducing the detection of the redox labeled-target. […] (f) CV of 1 µM [Os(bpy)3]^2+ alone. […] Error bars: standard deviations from 3 measurements. Plain lines: fits of eq 5 to the experimental data. • Figure 3: (A) CVs (v = 0.05 V s^-1) of 5 mM Tris buffer (pH 7.0) containing 50 mM NaCl, 10 mM Mg^2+, 5 µM Fc-L-Tym and (a) 0 µM, (b) 1 µM, (c) 2 µM, (d) 3 µM, (e) 4 µM (f) 5 µM (g) 7.5 µM (h) 10 µM (i) 12.5 µM and (j) 15 µM of D-Apt49. (B) Normalized anodic peak current response as a function of aptamer concentration. Each data is the average of 3 measurements. Error bars are standard deviations. Plain line: fit of eq 5 to the experimental data. • Figure 4: Competitive binding curves performed in (A) 5 mM Tris buffer (pH 7 + 50 mM NaCl + 10 mM MgCl2) or (B) 20% fetal bovine serum (simply diluted with a 4 mM MgCl2 aqueous solution) as a function of (●, ★, ▼, Δ) L-Tym or (○) D-Tym concentration. (*) Assay of 5 µM L-Tym in the presence of 5 mM D-Tym. The Fc-L-Tym concentration was always C^0T*= 5 µM, whereas the D-Apt49 concentrations were C^0R: (●) 3, (★,○,*) 10, (▼) 40 and (Δ) 100 µM.
The enantiospecificity of the assay was next characterized using the same methodology but for solutions containing the D-Tym enantiomer. […] To evaluate the enantiospecific performance of the aptamer, the assay of trace amount of L-Tym in the presence of a large excess of D-Tym was examined and, as reported in Figure 4A, it has been found possible to detect as low as 5 µM L-Tym in the presence of 5 mM D-Tym. This remarkable performance means that as low as 0.1 % of an enantiomeric impurity in a nonracemic mixture can be assayed in a very short analysis time (<1 min). This is competitive with conventional separation techniques, and one order of magnitude lower than the 1% currently attainable by NMR. Finally, the ability to perform an assay under realistic biological conditions was examined. For such purpose, homogenous electrochemical competitive binding assays of 5-fold diluted fetal bovin serum samples spiked with known amounts of […] were then performed (Figure 4B).

[1] = biological target: anti-L-tyrosinamide aptamer; details: previously determined by fluorescence polarization; cited from earlier work

Q: Which results are given for `NC(=O)[C@@H](N)Cc1ccc(O)cc1` [L-Tym, L-tyrosinamide]?
A: Kd (D-Apt49; 5-fold diluted fetal bovine serum, average of the fitted curves, read-out: Kd (average value)): 10 µM; Kd (D-Apt49; 20% fetal bovine serum, 5 µM Fc-L-Tym, 40 µM D-Apt49, read-out: Kd): 9 µM; Kd (D-Apt49; 20% fetal bovine serum, 5 µM Fc-L-Tym, 100 µM D-Apt49, read-out: Kd): 11 µM; Kd [1]: 1.7 to 2.2 µM
